pIC50: −log10 of the molar value.
How the values were obtained:
[1] = target: Protein kinase C alpha type (Homo sapiens) (UniProt P17252); experiment: Inhibition of PKCalpha at 1 uM
[2] = target: Proto-oncogene tyrosine-protein kinase ROS (Homo sapiens) (UniProt P08922); experiment: Inhibition of ROS1 at 1 uM
[3] = target: Tyrosine-protein kinase BTK (Homo sapiens) (UniProt Q06187); experiment: Inhibition of BTK at 1 uM
[4] = target: [Pyruvate dehydrogenase (acetyl-transferring)] kinase isozyme 1, mitochondrial (Homo sapiens) (UniProt Q15118); experiment: Inhibition of PDK1 at 1 uM
[5] = target: T1, Macrophage colony-stimulating factor 1 receptor (Homo sapiens, UniProt P07333); experiment: Inhibition of FMS
T1 sequence (P07333 whole entry, looked up): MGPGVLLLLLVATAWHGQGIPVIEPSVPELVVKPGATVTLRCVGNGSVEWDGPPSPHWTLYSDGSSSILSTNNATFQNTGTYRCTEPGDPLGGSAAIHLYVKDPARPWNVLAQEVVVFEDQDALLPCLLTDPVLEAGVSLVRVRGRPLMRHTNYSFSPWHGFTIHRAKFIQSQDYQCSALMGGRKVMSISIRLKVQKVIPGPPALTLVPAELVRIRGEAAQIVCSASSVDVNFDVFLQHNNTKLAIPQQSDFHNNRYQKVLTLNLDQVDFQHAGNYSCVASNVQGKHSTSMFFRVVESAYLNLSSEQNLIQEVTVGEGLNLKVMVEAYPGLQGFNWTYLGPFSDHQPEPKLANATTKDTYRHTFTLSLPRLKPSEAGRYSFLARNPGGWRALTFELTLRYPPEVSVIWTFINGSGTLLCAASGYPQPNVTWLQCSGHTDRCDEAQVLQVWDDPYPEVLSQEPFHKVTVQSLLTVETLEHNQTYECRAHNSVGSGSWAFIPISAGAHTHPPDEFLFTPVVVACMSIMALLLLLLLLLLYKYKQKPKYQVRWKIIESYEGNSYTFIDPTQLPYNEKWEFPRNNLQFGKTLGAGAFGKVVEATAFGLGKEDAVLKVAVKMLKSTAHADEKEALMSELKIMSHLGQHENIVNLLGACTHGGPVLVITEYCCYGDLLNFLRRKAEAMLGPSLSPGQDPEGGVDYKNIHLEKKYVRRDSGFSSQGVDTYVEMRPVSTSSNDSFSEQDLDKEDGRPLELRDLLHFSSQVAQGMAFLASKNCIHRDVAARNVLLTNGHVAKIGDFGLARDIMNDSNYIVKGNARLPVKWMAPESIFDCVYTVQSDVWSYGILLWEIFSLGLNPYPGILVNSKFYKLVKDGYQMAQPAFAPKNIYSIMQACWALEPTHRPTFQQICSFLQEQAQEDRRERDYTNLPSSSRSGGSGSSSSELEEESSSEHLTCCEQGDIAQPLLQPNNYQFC

[6] = target: Epidermal growth factor receptor (Homo sapiens) (UniProt P00533); experiment: Inhibition of EGFR at 1 uM
[7] = target: Tyrosine-protein kinase ABL1 (Homo sapiens) (UniProt P00519); experiment: Inhibition of ABL1 at 1 uM
[8] = target: T2, Vascular endothelial growth factor receptor 2 (Homo sapiens, UniProt P35968); experiment: Inhibition of KDR at 1 uM
T2 sequence (P35968 whole entry): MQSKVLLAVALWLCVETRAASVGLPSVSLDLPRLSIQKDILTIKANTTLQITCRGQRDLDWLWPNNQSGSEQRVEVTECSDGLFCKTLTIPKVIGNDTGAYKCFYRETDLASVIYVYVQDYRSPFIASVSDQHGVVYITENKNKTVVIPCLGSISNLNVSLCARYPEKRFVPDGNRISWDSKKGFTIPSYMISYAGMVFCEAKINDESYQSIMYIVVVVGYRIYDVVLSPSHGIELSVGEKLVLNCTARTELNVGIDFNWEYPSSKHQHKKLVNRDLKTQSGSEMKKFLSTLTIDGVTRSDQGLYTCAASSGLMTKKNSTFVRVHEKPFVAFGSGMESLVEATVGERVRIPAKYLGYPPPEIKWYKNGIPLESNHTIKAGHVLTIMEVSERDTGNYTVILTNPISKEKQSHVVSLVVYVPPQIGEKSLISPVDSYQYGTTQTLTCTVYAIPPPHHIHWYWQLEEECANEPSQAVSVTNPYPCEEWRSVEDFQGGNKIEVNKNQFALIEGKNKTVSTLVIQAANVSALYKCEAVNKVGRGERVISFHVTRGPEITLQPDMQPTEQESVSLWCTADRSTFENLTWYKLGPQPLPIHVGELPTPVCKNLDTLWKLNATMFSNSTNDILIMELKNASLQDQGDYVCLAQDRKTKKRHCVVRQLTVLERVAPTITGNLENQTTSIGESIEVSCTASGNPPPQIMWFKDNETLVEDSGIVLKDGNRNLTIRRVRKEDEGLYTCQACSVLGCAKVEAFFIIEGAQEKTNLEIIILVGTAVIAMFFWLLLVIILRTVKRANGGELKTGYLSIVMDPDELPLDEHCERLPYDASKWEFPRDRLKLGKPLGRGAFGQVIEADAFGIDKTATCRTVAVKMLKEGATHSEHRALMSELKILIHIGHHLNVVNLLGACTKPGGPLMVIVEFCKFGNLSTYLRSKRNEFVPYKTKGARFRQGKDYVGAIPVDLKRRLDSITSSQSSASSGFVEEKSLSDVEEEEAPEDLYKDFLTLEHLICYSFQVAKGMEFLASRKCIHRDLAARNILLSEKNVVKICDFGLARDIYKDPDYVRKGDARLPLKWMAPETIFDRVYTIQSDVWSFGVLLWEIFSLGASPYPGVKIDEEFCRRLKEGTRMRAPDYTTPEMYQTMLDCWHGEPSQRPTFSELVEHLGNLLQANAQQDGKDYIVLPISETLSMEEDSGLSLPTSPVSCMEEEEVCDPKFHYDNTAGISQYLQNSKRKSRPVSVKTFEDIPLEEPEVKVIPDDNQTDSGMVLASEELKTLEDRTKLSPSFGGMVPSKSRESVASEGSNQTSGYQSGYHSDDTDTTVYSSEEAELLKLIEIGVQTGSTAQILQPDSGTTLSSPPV

[9] = target: Calcium/calmodulin-dependent protein kinase type 1 (Homo sapiens) (UniProt Q14012); experiment: Inhibition of CamK1 at 1 uM
[10] = target: Proto-oncogene tyrosine-protein kinase Src (Homo sapiens) (UniProt P12931); experiment: Inhibition of c-SRC at 1 uM
[11] = target: ALK tyrosine kinase receptor (Homo sapiens) (UniProt Q9UM73); experiment: Inhibition of ALK at 1 uM
[12] = target: Serine/threonine-protein kinase mTOR (Homo sapiens) (UniProt P42345); experiment: Inhibition of mTOR at 1 uM
[13] = target: Ribosomal protein S6 kinase alpha-1 (Homo sapiens) (UniProt Q15418); experiment: Inhibition of RSK1 at 1 uM
[14] = target: Serine/threonine-protein kinase PAK 2 (Homo sapiens) (UniProt Q13177); experiment: Inhibition of PAK2 at 1 uM
[15] = target: Fibroblast growth factor receptor 1 (Homo sapiens) (UniProt P11362); experiment: Inhibition of FGFR1 at 1 uM
[16] = target: Cyclin-dependent kinase 5/CDK5 activator 1 (Homo sapiens) (UniProt Q00535+Q15078); experiment: Inhibition of CDK5/p25 at 1 uM; format: protein-complex assay
[17] = target: Mitogen-activated protein kinase kinase kinase 9 (Homo sapiens) (UniProt P80192); experiment: Inhibition of MLK1 at 1 uM
[18] = target: Aurora kinase A (Homo sapiens) (UniProt O14965); experiment: Inhibition of Aurora A at 1 uM
Chain of Aurora kinase A (Homo sapiens) (O14965 whole entry): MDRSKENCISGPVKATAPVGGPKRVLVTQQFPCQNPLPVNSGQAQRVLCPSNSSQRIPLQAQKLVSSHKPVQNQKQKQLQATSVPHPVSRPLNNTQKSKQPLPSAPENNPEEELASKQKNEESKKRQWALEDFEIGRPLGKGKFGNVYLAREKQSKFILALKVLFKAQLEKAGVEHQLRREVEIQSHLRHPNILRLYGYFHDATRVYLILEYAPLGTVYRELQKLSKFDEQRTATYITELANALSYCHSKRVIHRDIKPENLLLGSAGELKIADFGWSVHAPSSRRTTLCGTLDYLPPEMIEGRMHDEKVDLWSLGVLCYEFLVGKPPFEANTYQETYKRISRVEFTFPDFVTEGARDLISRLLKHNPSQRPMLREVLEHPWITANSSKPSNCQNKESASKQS

[19] = target: Insulin receptor (Homo sapiens) (UniProt P06213); experiment: Inhibition of IR at 1 uM
[20] = target: Protein-tyrosine kinase 2-beta (Homo sapiens) (UniProt Q14289); experiment: Inhibition of PYK2 at 1 uM
Chain of Protein-tyrosine kinase 2-beta (Homo sapiens) (Q14289 whole entry, looked up): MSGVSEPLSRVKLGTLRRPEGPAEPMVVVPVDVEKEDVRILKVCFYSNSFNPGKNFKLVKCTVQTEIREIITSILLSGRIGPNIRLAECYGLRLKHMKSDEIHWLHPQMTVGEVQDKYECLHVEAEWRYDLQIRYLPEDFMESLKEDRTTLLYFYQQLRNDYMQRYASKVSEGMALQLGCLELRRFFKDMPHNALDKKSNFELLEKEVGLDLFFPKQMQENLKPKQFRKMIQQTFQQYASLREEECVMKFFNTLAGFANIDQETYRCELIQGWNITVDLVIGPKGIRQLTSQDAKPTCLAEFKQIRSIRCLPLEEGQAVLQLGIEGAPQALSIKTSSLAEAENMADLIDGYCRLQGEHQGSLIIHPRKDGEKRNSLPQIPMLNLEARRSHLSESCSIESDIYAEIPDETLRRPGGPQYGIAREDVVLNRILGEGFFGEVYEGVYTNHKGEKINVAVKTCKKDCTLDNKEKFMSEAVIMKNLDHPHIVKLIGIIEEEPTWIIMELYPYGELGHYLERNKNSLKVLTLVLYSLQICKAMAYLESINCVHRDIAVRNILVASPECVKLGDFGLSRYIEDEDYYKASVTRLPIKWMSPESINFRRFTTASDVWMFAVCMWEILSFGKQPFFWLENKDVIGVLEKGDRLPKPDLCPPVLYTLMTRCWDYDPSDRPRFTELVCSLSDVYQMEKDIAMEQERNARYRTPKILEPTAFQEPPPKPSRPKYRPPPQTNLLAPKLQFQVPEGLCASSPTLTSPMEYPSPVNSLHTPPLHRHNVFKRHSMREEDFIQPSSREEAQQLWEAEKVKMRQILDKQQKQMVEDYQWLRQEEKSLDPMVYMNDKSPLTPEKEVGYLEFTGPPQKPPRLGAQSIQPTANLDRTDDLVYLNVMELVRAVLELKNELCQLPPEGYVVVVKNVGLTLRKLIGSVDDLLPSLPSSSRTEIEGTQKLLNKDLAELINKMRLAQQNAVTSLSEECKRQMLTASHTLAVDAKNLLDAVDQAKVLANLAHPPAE

[21] = target: Tyrosine-protein kinase JAK3 (Homo sapiens) (UniProt P52333); experiment: Inhibition of JAK3 at 1 uM
[22] = target: Insulin-like growth factor 1 receptor (Homo sapiens) (UniProt P08069); experiment: Inhibition of IGF1R at 1 uM
[23] = target: Serine/threonine-protein kinase pim-1 (Homo sapiens) (UniProt P11309); experiment: Inhibition of PIM1 at 1 uM
[24] = target: Serine/threonine-protein kinase MARK1 (Homo sapiens) (UniProt Q9P0L2); experiment: Inhibition of MARK1 at 1 uM
[25] = target: Glycogen synthase kinase-3 beta (Homo sapiens) (UniProt P49841); experiment: Inhibition of GSK3-beta at 1 uM
[26] = target: Ribosomal protein S6 kinase beta-1 (Homo sapiens) (UniProt P23443); experiment: Inhibition of p70S6K at 1 uM
[27] = target: Serine/threonine-protein kinase PLK1 (Homo sapiens) (UniProt P53350); experiment: Inhibition of PLK1 at 1 uM
[28] = target: Serine/threonine-protein kinase Chk1 (Homo sapiens) (UniProt O14757); experiment: Inhibition of CHK1 at 1 uM
[29] = target: Inhibitor of nuclear factor kappa-B kinase subunit beta (Homo sapiens) (UniProt O14920); experiment: Inhibition of IKK-beta at 1 uM
[30] = Inhibition of PKBalpha; conditions: concentration not given here
[31] = target: Proto-oncogene tyrosine-protein kinase receptor Ret (Homo sapiens) (UniProt P07949); experiment: Inhibition of RET at 1 uM
[32] = target: T2, Vascular endothelial growth factor receptor 2; experiment: Inhibition of KDR
[33] = target: Tyrosine-protein kinase SYK (Homo sapiens) (UniProt P43405); experiment: Inhibition of SYK at 1 uM
[34] = target: T1, Macrophage colony-stimulating factor 1 receptor; experiment: Inhibition of FMS at 1 uM
[35] = Inhibition of PKA at 1 uM
[36] = target: Rho-associated protein kinase 1 (Homo sapiens) (UniProt Q13464); experiment: Inhibition of ROCK1 at 1 uM
[37] = target: Tyrosine-protein kinase Tec (Homo sapiens) (UniProt P42680); experiment: Inhibition of TEC at 1 uM
[38] = target: Tyrosine-protein kinase Fyn (Homo sapiens) (UniProt P06241); experiment: Inhibition of FYN at 1 uM
[39] = target: Mast/stem cell growth factor receptor Kit (Homo sapiens) (UniProt P10721); experiment: Inhibition of cKIT1 at 1 uM
[40] = target: Mitogen-activated protein kinase 14 (Homo sapiens) (UniProt Q16539); experiment: Inhibition of SAPK2A at 1 uM
Chain of Mitogen-activated protein kinase 14 (Homo sapiens) (Q16539 whole entry): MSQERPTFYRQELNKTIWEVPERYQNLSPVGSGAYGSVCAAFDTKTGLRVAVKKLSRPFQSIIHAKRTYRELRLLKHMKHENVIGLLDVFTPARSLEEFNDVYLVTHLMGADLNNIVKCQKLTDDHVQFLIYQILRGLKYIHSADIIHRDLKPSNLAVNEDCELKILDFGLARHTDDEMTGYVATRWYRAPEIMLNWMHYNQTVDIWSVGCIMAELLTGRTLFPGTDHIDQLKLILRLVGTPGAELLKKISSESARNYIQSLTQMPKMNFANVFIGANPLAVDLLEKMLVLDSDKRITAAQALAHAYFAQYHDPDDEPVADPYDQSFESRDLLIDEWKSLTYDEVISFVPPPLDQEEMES

[41] = target: Homeodomain-interacting protein kinase 2 (Homo sapiens) (UniProt Q9H2X6); experiment: Inhibition of HIPK2 at 1 uM
[42] = target: Dual specificity mitogen-activated protein kinase kinase 1 (Homo sapiens) (UniProt Q02750); experiment: Inhibition of MEK1 at 1 uM
[43] = target: Mitogen-activated protein kinase 8 (Homo sapiens) (UniProt P45983); experiment: Inhibition of JNK1alpha1 at 1 uM
[44] = target: Tyrosine-protein kinase Lck (Homo sapiens) (UniProt P06239); experiment: Inhibition of LCK at 1 uM
[45] = target: Receptor-type tyrosine-protein kinase FLT3 (Homo sapiens) (UniProt P36888); experiment: Inhibition of FLT3 at 1 uM
Chain of Receptor-type tyrosine-protein kinase FLT3 (Homo sapiens) (P36888 whole entry): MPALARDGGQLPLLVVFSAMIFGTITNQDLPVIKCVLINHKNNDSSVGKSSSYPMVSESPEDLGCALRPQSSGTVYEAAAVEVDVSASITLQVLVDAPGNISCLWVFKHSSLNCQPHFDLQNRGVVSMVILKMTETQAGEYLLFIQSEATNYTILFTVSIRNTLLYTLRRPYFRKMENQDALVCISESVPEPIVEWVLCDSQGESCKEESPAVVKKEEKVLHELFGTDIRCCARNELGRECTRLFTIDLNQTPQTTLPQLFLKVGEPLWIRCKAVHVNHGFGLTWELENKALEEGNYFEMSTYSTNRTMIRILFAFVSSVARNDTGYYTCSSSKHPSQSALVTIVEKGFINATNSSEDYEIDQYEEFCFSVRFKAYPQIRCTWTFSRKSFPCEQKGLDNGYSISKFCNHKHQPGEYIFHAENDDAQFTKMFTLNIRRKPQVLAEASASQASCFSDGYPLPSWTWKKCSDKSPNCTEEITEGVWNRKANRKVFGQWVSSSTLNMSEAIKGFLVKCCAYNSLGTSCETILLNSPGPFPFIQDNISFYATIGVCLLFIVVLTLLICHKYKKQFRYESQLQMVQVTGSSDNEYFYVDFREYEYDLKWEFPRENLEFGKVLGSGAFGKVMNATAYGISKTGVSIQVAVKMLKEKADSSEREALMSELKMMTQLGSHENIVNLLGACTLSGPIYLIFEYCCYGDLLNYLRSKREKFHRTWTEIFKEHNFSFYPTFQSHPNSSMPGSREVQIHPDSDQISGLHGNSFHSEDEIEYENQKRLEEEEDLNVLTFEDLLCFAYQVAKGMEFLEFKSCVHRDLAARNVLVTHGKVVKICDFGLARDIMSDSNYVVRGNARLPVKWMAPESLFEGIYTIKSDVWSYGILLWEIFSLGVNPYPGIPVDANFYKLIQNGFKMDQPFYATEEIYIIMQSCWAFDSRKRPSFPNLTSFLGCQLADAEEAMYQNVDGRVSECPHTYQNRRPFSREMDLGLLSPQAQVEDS

[46] = target: Ephrin type-A receptor 1 (Homo sapiens) (UniProt P21709); experiment: Inhibition of EPHA1 at 1 uM

inhibition [1]: -5%
inhibition [2]: 19%
inhibition [3]: 7%
inhibition [4]: -1%
pIC50 [5]: 7.02
inhibition [6]: 1%
inhibition [7]: 41%
inhibition [8]: 71%
inhibition [9]: -1%
inhibition [10]: 10%
inhibition [11]: 11%
inhibition [12]: -10%
inhibition [13]: 8%
inhibition [14]: 2%
inhibition [15]: 6%
inhibition [16]: 8%
inhibition [17]: -1%
inhibition [18]: 21%
inhibition [19]: 2%
inhibition [20]: 23%
inhibition [21]: 17%
inhibition [22]: 10%
inhibition [23]: 10%
inhibition [24]: -9%
inhibition [25]: 4%
inhibition [26]: 7%
inhibition [27]: 4%
inhibition [28]: -8%
inhibition [29]: 23%
inhibition [30]: 18%
inhibition [31]: 57%
pIC50 [32]: 5.98
inhibition [33]: 6%
inhibition [34]: 90%
inhibition [35]: 16%
inhibition [36]: 3%
inhibition [37]: 14%
inhibition [38]: 44%
inhibition [39]: -2%
inhibition [40]: 25%
inhibition [41]: 9%
inhibition [42]: 12%
inhibition [43]: -1%
inhibition [44]: 33%
inhibition [45]: 16%
inhibition [46]: 9%
SMILES: O=C(Nc1cccc(-n2ccc3c(NC(=O)c4ccccc4)nccc32)c1)c1ccc(N2CCOCC2)c(C(F)(F)F)c1
